In test [1] the target is T1, Serine/threonine-protein kinase D2 (Homo sapiens) (UniProt Q9BZL6).
T1 sequence (whole entry): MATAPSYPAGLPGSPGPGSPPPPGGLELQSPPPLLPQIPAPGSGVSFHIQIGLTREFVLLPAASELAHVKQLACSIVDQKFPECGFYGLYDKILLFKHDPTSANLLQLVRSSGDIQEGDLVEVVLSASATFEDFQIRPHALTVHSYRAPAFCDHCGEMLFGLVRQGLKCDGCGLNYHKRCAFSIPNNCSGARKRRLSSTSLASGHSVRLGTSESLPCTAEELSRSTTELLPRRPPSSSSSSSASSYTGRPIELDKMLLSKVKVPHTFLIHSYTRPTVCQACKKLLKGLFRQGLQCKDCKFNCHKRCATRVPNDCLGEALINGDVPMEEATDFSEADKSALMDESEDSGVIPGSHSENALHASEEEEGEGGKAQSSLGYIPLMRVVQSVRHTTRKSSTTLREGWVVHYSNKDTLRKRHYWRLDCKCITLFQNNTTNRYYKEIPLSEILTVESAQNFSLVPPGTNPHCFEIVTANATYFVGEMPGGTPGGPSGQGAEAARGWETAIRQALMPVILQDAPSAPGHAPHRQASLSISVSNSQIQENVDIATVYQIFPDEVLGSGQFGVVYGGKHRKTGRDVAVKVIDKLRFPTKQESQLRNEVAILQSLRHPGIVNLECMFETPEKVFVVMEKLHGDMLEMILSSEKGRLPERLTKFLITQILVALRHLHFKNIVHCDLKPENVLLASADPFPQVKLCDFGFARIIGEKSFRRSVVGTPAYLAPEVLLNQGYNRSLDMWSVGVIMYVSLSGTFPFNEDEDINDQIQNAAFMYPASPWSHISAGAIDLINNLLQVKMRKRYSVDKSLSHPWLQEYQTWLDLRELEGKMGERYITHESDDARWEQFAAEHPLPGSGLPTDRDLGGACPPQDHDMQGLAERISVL
The experiment in a line: Selectivity interaction (KinomeScan (DiscoverX)) EUB0000229b PRKD2. The note with it: at 10 µM.

The target of test [2] is T2, Receptor-interacting serine/threonine-protein kinase 4 (Homo sapiens) (UniProt P57078).
T2 sequence (whole entry): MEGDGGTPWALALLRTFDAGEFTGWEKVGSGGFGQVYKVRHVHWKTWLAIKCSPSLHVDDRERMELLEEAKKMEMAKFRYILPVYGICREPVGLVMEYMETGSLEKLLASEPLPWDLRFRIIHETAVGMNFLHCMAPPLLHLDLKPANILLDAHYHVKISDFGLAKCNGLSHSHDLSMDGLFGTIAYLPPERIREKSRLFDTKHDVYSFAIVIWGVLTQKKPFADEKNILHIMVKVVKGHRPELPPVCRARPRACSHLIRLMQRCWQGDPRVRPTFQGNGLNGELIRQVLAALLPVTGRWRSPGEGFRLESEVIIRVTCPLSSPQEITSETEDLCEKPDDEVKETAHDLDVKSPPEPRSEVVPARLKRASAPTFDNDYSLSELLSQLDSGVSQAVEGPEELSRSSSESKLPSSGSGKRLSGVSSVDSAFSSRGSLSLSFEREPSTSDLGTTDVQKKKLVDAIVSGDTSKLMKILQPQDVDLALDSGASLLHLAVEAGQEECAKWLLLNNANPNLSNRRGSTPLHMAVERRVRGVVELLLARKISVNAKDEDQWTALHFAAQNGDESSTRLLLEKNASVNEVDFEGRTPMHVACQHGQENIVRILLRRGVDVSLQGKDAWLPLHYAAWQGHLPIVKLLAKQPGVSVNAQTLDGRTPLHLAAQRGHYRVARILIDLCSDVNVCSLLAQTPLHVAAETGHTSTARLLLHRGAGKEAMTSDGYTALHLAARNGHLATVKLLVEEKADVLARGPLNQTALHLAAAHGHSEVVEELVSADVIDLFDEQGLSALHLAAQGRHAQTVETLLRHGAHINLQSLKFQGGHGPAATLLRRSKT
The experiment in a line: Selectivity interaction (KinomeScan (DiscoverX)) EUB0001619a RIPK4. The note with it: at 1 µM.

Test [3] deals with Tyrosine-protein kinase SYK (Homo sapiens, UniProt P43405). The experiment in a line: Selectivity interaction (ActivX KiNativ screen (kinase selectivity in THP-1 cell lysates)) EUB0000639a SYK. In kind it is subcellular. The note with it: lysate, at 0.04 µM.
Test [4] addresses Calcium/calmodulin-dependent protein kinase type 1 (Homo sapiens) (UniProt Q14012). The experiment in a line: Selectivity interaction (KinomeScan (DiscoverX)) EUB0001049a CAMK1. The note with it: at 1 µM.
Test [5] deals with T3, Mitogen-activated protein kinase kinase kinase 13 (Homo sapiens) (UniProt O43283).
T3 sequence (whole entry): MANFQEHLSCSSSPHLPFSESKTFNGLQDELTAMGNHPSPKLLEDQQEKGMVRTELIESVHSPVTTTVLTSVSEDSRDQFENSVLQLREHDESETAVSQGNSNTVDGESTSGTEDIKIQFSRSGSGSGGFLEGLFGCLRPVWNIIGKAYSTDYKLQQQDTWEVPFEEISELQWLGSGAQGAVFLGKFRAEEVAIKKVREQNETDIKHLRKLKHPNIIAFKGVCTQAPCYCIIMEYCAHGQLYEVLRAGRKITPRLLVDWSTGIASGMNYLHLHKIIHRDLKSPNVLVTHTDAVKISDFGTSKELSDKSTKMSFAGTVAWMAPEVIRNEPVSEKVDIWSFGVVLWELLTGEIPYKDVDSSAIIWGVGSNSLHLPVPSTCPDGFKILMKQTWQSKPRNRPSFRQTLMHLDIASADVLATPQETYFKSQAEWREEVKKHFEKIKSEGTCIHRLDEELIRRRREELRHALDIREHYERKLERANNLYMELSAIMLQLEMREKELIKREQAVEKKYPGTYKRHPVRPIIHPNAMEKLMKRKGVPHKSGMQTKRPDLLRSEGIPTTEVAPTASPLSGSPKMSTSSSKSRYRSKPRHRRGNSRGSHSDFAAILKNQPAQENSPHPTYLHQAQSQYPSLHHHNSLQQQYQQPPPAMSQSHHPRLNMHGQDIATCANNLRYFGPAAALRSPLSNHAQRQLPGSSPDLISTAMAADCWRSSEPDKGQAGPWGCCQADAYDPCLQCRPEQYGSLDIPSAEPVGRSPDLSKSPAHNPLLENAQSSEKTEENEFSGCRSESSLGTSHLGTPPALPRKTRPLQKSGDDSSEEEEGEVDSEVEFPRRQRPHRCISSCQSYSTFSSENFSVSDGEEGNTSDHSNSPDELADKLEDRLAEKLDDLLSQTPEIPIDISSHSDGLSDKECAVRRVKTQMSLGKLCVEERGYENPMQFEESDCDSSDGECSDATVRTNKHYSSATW
The experiment in a line: Selectivity interaction (KinomeScan (DiscoverX)) EUB0000695a MAP3K13. The note with it: at 100 nM.

Test [6] concerns the target Non-receptor tyrosine-protein kinase TYK2 (Homo sapiens, UniProt P29597). The experiment in a line: Selectivity interaction (KinomeScan (DiscoverX)) EUB0000045b TYK2. The note with it: at 1 µM.
Test [7] addresses Ribosomal protein S6 kinase alpha-4 (Homo sapiens) (UniProt O75676). The test can be described thus: Selectivity interaction (KinomeScan (DiscoverX)) EUB0000595a RPS6KA4. The note with it: at 10 µM.

SMILES strings stand for the structures.

Ribosomal protein S6 kinase alpha-4 (Homo sapiens), sequence (O75676 whole entry, looked up): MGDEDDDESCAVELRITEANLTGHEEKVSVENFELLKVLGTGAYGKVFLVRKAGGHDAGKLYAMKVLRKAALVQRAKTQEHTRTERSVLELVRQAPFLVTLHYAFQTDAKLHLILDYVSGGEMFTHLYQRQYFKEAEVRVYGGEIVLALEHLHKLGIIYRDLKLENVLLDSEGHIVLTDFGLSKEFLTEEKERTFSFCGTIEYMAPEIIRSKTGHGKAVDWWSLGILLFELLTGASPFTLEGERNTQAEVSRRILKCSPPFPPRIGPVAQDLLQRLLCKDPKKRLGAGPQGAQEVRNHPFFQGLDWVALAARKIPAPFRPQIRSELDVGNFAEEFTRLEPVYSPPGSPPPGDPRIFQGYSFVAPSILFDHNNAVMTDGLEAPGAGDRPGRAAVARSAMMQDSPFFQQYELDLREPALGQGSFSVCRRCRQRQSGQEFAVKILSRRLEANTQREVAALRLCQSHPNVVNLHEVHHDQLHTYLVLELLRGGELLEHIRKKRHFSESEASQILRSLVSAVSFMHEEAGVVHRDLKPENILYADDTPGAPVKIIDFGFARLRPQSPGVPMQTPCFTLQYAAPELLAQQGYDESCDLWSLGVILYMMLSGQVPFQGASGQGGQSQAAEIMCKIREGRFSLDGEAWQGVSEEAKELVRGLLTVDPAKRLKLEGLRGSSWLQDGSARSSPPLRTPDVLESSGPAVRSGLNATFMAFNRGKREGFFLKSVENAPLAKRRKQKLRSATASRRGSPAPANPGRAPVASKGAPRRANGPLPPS
Calcium/calmodulin-dependent protein kinase type 1 (Homo sapiens), sequence (Q14012 whole entry, looked up): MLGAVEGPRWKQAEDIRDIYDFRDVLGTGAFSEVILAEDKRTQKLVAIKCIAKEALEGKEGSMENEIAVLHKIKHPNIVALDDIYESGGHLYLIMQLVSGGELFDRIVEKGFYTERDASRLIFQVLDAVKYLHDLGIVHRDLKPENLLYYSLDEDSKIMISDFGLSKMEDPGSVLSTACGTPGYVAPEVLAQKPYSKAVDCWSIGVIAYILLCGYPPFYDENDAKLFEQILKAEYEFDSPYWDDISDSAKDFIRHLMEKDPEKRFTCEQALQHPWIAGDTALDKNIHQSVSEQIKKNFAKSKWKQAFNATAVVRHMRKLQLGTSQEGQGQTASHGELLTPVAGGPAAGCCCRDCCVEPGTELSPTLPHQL
Non-receptor tyrosine-protein kinase TYK2, sequence (P29597 whole entry): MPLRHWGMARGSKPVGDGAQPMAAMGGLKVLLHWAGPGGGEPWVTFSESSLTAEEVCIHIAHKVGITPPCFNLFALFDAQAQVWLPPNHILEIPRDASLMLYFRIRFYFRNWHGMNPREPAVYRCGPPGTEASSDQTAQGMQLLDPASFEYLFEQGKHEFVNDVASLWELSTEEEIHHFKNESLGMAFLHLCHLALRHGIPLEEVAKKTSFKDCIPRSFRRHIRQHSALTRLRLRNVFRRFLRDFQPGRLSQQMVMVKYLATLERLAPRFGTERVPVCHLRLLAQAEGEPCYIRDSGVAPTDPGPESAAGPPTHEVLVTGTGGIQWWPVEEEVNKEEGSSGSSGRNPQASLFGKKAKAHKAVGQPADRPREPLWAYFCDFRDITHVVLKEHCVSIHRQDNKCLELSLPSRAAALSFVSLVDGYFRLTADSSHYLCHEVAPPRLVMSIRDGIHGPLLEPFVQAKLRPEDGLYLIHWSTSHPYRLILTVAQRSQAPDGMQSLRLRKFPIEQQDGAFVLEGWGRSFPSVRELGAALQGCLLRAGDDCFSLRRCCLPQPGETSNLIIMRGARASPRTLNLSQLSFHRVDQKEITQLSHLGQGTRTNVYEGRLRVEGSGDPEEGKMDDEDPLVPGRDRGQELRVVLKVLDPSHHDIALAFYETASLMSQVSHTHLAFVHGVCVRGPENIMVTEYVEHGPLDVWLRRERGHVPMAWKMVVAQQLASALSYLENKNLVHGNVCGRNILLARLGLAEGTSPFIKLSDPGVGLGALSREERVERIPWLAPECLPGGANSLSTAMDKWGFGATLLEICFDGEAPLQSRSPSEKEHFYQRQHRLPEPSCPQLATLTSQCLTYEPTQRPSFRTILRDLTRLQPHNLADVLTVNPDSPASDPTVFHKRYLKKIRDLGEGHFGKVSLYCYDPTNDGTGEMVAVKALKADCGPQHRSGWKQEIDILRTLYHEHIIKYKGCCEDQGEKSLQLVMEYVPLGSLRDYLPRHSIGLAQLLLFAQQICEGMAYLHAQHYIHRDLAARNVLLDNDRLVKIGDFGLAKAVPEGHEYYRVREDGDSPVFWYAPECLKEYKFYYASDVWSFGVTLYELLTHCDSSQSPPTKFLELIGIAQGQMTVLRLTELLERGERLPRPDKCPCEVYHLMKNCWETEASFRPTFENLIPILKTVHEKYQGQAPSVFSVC

Compound `COc1cc(N(C)c2ccnc3ccc(C(F)(F)F)cc23)cc(OC)c1OC` displayed a % binding in test [1] of 90%.

In test [2], `N#Cc1cccc(-c2c[nH]c3ncnc(N4CCOCC4)c23)c1` displayed a % of control of 57%.

Regarding `CC[C@@H]1[C@H](F)C(=O)N[C@@H]1COc1nccc2cc(C(N)=O)c(OC)cc12` [ZIMLOVISERTIB], the % of inhibition in test [3] came out at 5.5%.

Regarding `COc1cc(Nc2nc(C)cc(-c3cnn4nc(OC)ccc34)n2)cc(C(F)(F)F)c1`, the % of control in test [4] worked out at 75%.

Take `Cc1cc(F)c(C(=O)Nc2cccc(-c3nncn3C(C)C)n2)cc1-n1cnc(C2CC2)c1`: the % of control in test [5] was 97%.

For the compound `C=CC(=O)Nc1cc(-n2c(=O)ccc3cnc4ccc(-c5ccc(NS(C)(=O)=O)cc5)cc4c32)ccc1C`, the % of control in test [6] stood at 80%.

Consider `COCC(=O)NC/C=C/c1ccc2ncnc(Nc3ccc(Oc4ccc(C)nc4)c(C)c3)c2c1` [CP-724714], for which the % of control in test [7] came to 100%.

Values taken from ChEMBL document CHEMBL5465560, “Selectivity Literature for EUbOPEN Chemogenomic Library” (2024).
